Assay results: US8936941B2, “Compositions useful for cancer detection and treatment, a cancer stem cell model, and methods of production and use thereof” (priority 2008, dated 2015)
Entries after “also recorded” stand apart in the source; their conditions may differ.

System: HCT116 tumor xenografts
Test: HCT116 tumor xenograft model in athymic nude mice, intratumoral treatment
Assay type: in vivo
Text: Real-time reverse transcription-PCR analyses. Total RNA isolated either from cells or from human colon cancer cell tumor xenograft samples was subjected to reverse transcription with Superscript™ II RNase H—Reverse Transcriptase and random hexanucleotide primers (Invitrogen, Carlsbad, Calif.). The cDNA was subsequently used to perform Real-time PCR by SYBR chemistry (SYBR® Green I; Molecular Probes) for specific transcripts using gene specific primers and Jumpstart Taq DNA polymerase (Sigma-Aldrich, St. Louis, Mo.). […] The changes in mRNA were expressed as fold change relative to control with ±SEM value.
miRNA analysis. Total miRNA was isolated using mirVana™ miRNA isolation kit (Ambion Inc.). Total miRNA isolated either from cells or from human colon cancer cell tumor xenograft samples were subjected to reverse transcription with Superscript™ II RNase H—Reverse Transcriptase and random hexanucleotide primers (Invitrogen, Carlsbad, Calif.). The cDNA was subsequently used to perform Real-time PCR by SYBR chemistry (SYBR® Green I; Molecular Probes) for pri-let-7a transcript using specific primers and Jumpstart Taq DNA polymerase (Sigma-Aldrich, St. Louis, Mo.). […] The changes in pri-miRNA were expressed as fold change relative to control with ±SEM value. Primers used are: […]
Western Blot analysis. HCT116 and SW480 cells were cultured in a 6 well plates to 40% confluency and were transfected with si-DCAMKL-1 or si-Scr for 72 h. Cells or the tumor xenograft samples were lysed and the concentration of protein was determined by BCA protein assay kit (Pierce Biotechnology Inc., Rockford, Ill.). […] The membrane was blocked in 5% non-fat dry milk for 1 h and probed overnight with a rabbit anti-DCAMKL-1 antibody (Abcam Inc., Cambridge, Mass.) or with rabbit anti-c-Myc antibody (Santa Cruz). Subsequently, the membrane was incubated with anti-rabbit or anti-goat IgG horseradish peroxidase-conjugated antibodies (Amersham-Pharmacia) for 1 h at room temperature. The 82 kDa DCAMKL-1 and 49 kDa c-Myc proteins were detected using ECL™ Western Blotting detection reagents (Amersham-Pharmacia). Actin (43 kDa), used as loading control was identified using a goat polyclonal IgG (Santa Cruz Biotechnology Inc., Santa Cruz, Calif.).
Immunohistochemistry. Heat Induced Epitope Retrieval was performed on 4 μm formalin-fixed paraffin-embedded sections utilizing a pressurized Decloaking Chamber (Biocare Medical) in citrate buffer (pH 6.0) at 99° C. for 18 min. (a) Brightfield: Slides were incubated in 3% hydrogen peroxide, then normal serum and BSA at room temperature for 20 min. After incubation with primary antibody [DCAMKL-1 C-terminal (Abcam), anti-c-Myc (Santa Cruz Biotechnologies), L-FABP (Santa Cruz Biotechnologies)], the slides were incubated in peroxidase-conjugated EnVision™+polymer detection kit (DAKO). Slides were developed with Diaminobenzidine (Sigma). (b) Fluorescence: Slides were first incubated in Image-iT FX signal enhancer (Invitrogen), followed by normal serum and BSA at room temperature for 20 min.
Xenograft tumor model. (a) Liposomal preparation: siRNA was administered into the xenografts after incorporation into 1,2-Dioleoyl-sn-Glycero-3-Phosphocholine (DOPC) (Avanti Polar Lipids, Alabaster, Ala.). DOPC and siRNA were mixed in the presence of excess tertiary butanol at a ratio of 1:10 (w/w) (siRNA/DOPC). Tween 20 (Sigma-Aldrich) was added to the mixture at a ratio of 1:19 Tween 20:siRNA/DOPC. The mixture was vortexed and frozen in an acetone/dry ice bath and lyophilized. Before administration, the siRNA preparation was reconstituted in 0.9% sterile saline and injected at a dose of 50 μl (5 μM) per injection. (b) Tumor therapy: Female athymic nude mice (NCr-nu) were purchased from the National Cancer Institute-Frederick Cancer Research and Development Center (Frederick, Md.) and housed in specific pathogen-free conditions.

[1] = real-time RT-PCR, compared to control and si-Scr treated tumors

## si-DCAMKL-1: siRNA targeting the coding region of DCAMKL-1 (NM_004734), sequence GGGAGUGAGAACAAUCUAC (SEQ ID NO:3) (chemistry not given here; listed as Homo sapiens)
Western blot
  DCAMKL-1 protein in tumors: reduced expression
Western blot analysis
  Notch-1 and cleaved Notch-1 protein in tumors: marked reduction
Western blot and immunohistochemical analyses
  c-Myc protein in tumors: striking reduction
Compared to controls
  reduction in Notch-1 mRNA in tumors: 55%
  reduction in c-Myc mRNA in tumors: 45%
[1]
  downregulation of DCAMKL-1 mRNA expression in tumors: 55%
  increase in pri-let-7a miRNA expression in tumors: > 3 fold
siRNA in liposome preparation injected into tumors from day 15, every third day, 5 doses
  tumor size / xenograft growth: statistically significant reduction; also recorded: near complete tumor growth arrest
Tumors excised at day 28, after 5 injections
  tumor weight: significantly decreased
